Assay [1] is described as follows: In Vitro Binding affinity againist 5-HT1A receptor by displacing [3H]8-OH-DPAT from pig cortex.
Assay [2] in a line: In Vitro Binding affinity againist 5-hydroxytryptamine 1D receptor by displacing [125I]GTI from pig caudate.
Assay [3] in a line: In Vitro Binding affinity againist 5-hydroxytryptamine 2C receptor by displacing [3H]mesulergine from pig cortex.

Structures are written as SMILES.

With `NCCc1coc2ccc(C(N)=O)cc12`, the results for the IC50 in assay [1], in assay [2] and in assay [3] were 4.6 nM, 43 nM and 661 nM, respectively.

Turning to `NCCC1COc2ccc(C(N)=O)cc21` (stereo unspecified), the 50% inhibitory concentration (IC50) in assay [1] came out at 72 nM; in assay [2], 776 nM; in assay [3] it was 8130 nM.

Usually IC50 stands for the concentration at which inhibition is half-maximal. A low value points to greater potency in that assay.

These data come from BindingDB's records for doi:10.1016/S0960-894X(01)80331-0 (1994).
